Converted amounts (≈) assume the structure as drawn. “And” between values parts separate entries of the source, which are not always exact repeats. Equal values may be shown once. Read-outs that look alike come from different tables or passages of the source.
Tests used:
Enterobacter cloacae = test: MIC ESKAPES panel, Enterobacter cloacae; type: cell-based
Method: (§1) Minimum inhibitory concentration (MIC) against ESKAPES panel of Gram positive and Gram negative pathogens (Enterococcus faecium, Staphylococcus aureus, Klebsiella pneumoniae, Acinetobacter baumannii, Pseudomonas aeruginosa, Enterobacter cloacae and Salmonella typhimurium [ESKAPES panel]) were determined at the FNDR by the standard broth dilution method [CLSI, M100]. […] Mueller Hinton broth (MHB) medium was used to grow ESKAPES panel strains. The individual cultures were added as 200 μL (inoculum of 3–7 × 10^5 cfu/ml) to the respective assay plates in each well to all columns, except the media control (200 μL of medium). […] The assay plates were incubated at 37 °C, and the results were noted on the 2nd day as turbidometric readout. The clear wells indicated inhibition of growth, while the turbid wells indicated uninhibited growth.

[1] = biological target: endogenous ClpC1 in Msm #607 cells (Mycolicibacterium smegmatis, UniProt A0R574); type: cell-based, M. smegmatis; conditions: for ClpC1/Total protein / ClpC1 peak area / Total protein: well replicates of independent experiments
[2] = type: in vitro ADME, Mice; conditions: clearance in microsomes
Summary of the method: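 1 µmol/l cpd + 0.5 mg/ml microsomes, Tris-HCl 100 mM pH 7.5 / MgCl2 6.5 mM / NADPH 1 mM, 37 °C. Timed acetonitrile quench, spin, supernatant by HPLC-MS/MS. t1/2 from first-order decay → clearance %Qh, well-stirred model.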

[3] = test system: replicating Mtb H37Rv cells; test: Resazurin growth assay, replicating Mtb H37Rv (Supplementary Fig. 2); type: cell-based, Mycobacterium tuberculosis; conditions: three replicate columns
Mtb H37Rv = test: Minimum bactericidal concentration (MBC), Mtb H37Rv; type: cell-based, Mycobacterium tuberculosis; conditions: for MBC: Mycobacterium tuberculosis, H37RV
Msm 700084 = test: microbe, parasite or virus in culture; type: cell-based; conditions: Mycolicibacterium smegmatis, 700084; read-out: MIC Msm 700084
Mtb # 11291 = test: microbe, parasite or virus in culture; type: cell-based
Staphylococcus aureus = test: MIC ESKAPES panel, Staphylococcus aureus; type: cell-based
Method: as §1

Klebsiella pneumoniae = test: MIC ESKAPES panel, Klebsiella pneumoniae; type: cell-based
Method: as §1

[4] = biological target: ClpC1-NTD substrate, M. tuberculosis ClpC1P1P2 (Mycobacterium tuberculosis, UniProt P9WPC9); test: biochemical; type: biochemical; conditions: Mtb; mean of the measurements; read-out: DC50, Mean
Pseudomonas aeruginosa = test: MIC ESKAPES panel, Pseudomonas aeruginosa; type: cell-based
Method: as §1

[5] = biological target: His6-tagged ClpC1-NTD substrate, M. smegmatis ClpC1P1P2 (UniProt A0R574+P9WPC9); test: biochemical; type: biochemical; conditions: for % Response / ClpC1-NTD peak area: Figure 4a source data, well replicates
Caco-2 monolayers = test: in vitro
Summary of the method: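 Permeability across Caco-2 monolayers was measured in both directions, apical-to-basolateral and basolateral-to-apical, in 10^-6 cm s-1. Efflux ratio = P(B−A)/P(A−B). Intrinsic permeability is the mean of P(A−B) and P(B−A).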

Mtb (moxR) FNDR-M1 = test: microbe, parasite or virus in culture; type: cell-based
[6] = Gram-Negative Bacteria, replicates 1-3, listed as 8 (UdSBI-0545)

Sequence of endogenous ClpC1 in Msm #607 cells (A0R574 whole entry): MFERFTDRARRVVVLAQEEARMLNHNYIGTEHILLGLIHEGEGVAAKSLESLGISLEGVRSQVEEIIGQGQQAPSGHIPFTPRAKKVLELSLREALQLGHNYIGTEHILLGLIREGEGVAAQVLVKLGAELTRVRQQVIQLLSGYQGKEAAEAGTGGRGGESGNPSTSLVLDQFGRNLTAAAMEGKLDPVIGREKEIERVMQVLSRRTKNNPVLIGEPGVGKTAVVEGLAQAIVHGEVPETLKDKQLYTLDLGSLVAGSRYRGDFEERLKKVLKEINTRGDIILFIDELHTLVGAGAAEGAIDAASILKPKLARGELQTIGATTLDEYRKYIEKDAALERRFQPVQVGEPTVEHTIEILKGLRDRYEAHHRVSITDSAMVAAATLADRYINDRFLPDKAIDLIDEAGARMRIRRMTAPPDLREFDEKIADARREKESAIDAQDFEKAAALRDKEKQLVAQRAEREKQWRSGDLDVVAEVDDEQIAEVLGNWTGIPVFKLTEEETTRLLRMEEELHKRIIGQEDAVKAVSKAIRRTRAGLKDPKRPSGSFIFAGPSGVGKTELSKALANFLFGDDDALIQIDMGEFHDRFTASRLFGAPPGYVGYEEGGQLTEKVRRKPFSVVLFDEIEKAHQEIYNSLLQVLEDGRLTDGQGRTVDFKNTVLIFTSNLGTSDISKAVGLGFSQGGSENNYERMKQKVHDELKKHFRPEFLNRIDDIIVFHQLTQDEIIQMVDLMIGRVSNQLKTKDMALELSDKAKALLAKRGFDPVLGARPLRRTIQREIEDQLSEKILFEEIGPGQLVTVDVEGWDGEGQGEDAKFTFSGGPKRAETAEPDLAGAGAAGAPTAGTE
Sequence of His6-tagged ClpC1-NTD substrate, M. smegmatis ClpC1P1P2 (P9WPC9 1-156, looked up, natural form): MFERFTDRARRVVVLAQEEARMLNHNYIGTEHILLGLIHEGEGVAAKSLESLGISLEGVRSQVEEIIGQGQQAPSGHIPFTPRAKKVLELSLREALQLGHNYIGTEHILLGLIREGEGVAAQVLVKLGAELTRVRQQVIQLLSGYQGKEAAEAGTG
Sequence of His6-tagged ClpC1-NTD substrate, M. smegmatis ClpC1P1P2 (A0R574 whole entry): as the sequence (A0R574 whole entry) above
Sequence of ClpC1-NTD substrate, M. tuberculosis ClpC1P1P2 (P9WPC5 whole entry): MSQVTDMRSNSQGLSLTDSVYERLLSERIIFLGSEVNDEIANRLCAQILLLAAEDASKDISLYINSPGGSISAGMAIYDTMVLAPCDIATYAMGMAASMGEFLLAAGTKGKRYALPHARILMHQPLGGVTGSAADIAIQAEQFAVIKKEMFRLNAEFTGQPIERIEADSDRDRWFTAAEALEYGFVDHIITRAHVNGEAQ
Sequence of ClpC1-NTD substrate, M. tuberculosis ClpC1P1P2 (P9WPC9 whole entry): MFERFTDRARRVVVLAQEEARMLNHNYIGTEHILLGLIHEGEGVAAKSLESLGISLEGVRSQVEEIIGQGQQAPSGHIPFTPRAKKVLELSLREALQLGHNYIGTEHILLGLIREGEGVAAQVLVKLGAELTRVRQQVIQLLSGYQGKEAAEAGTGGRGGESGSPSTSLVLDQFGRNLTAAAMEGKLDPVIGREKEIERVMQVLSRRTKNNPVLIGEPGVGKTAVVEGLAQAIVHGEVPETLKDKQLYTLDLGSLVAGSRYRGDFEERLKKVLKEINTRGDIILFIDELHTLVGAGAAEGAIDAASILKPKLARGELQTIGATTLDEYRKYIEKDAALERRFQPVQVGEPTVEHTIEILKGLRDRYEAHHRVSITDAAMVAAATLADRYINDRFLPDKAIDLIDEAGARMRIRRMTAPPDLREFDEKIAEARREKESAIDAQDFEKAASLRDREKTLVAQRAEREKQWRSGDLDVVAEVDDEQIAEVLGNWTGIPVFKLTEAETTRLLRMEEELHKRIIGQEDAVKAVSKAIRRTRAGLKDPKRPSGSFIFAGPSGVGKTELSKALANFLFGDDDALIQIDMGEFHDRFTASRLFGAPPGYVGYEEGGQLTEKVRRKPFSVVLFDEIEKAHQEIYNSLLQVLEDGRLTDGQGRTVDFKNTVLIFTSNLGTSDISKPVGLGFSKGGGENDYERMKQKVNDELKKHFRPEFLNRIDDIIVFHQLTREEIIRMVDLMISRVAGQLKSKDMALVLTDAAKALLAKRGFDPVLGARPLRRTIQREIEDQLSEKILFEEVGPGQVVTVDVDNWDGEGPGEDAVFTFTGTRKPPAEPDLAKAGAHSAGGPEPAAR
Sequence of ClpC1-NTD substrate, M. tuberculosis ClpC1P1P2 (P9WPC3 whole entry, further chain): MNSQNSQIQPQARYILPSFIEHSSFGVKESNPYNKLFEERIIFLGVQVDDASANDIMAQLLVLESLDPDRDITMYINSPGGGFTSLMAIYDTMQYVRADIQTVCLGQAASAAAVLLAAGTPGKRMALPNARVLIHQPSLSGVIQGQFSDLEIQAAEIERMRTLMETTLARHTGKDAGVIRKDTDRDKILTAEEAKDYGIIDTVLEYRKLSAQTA

SMILES: COC(c1ccccc1)C1NC(=O)C(C)NC(=O)C(CC(C)CO)N(C)C(=O)C(Cc2cn(Cc3cn(CCOCCOCCOCCOCCn4cc(Cn5cc(CC6NC(=O)C(C(C)C)NC(=O)C(CC(C)C)N(C)C(=O)C(C(C)C)NC(=O)C(C(OC)c7ccccc7)NC(=O)C(C)NC(=O)C(CC(C)CO)N(C)C6=O)c6ccccc65)nn4)nn3)c3ccccc23)NC(=O)C(C(C)C)NC(=O)C(CC(C)C)N(C)C(=O)C(C(C)C)NC1=O (stereo not shown) [Compound 8]
- MIC (Enterobacter cloacae; Enterobacter cloacae, Gram negative, n = 3 well replicates): > 50 µM
- MIC (Enterobacter cloacae; Enterobacter cloacae, Gram-Negative Bacteria, replicates 1-3): > 109 µg/mL
- MIC (Enterobacter cloacae; [6]): >50 µM
- DC50 ([1]; 24 hours, value of the earlier manuscript version quoted in the peer review file, read-out: average DC50, ClpC1 degradation): 0.571 µM
- DC50 ([1]; Msm #607, 24 h of incubation, read-out: average DC50, endogenous ClpC1 degradation): 0.57 ± 0.4 µM
- ClpC1/Total protein ([1]; conc. 0.00038147 µM): 0.2282 and 0.267 and 0.2648 and 0.2027 and 0.212 and 0.2298 and 0.7429 and 0.8229 and 0.7712
- ClpC1 peak area ([1]; conc. 0.00038147 µM): 294811 and 344226 and 322628 and 390018 and 426373 and 358944 and 302120 and 328285 and 319637
- Total protein ([1]; conc. 0.00038147 µM): 1323644 and 1229496 and 1207050 and 1454716 and 1623647 and 1404254 and 524970 and 518103 and 465460
- ClpC1/Total protein ([1]; conc. 0.00305176 µM): 0.2394 and 0.2569 and 0.2557 and 0.2218 and 0.1962 and 0.1042 and 0.78 and 0.7556 and 0.8129
- ClpC1 peak area ([1]; conc. 0.00305176 µM): 298033 and 275548 and 121574 and 410944 and 384208 and 424052 and 320906 and 252067 and 328696
- Total protein ([1]; conc. 0.00305176 µM): 1340459 and 981268 and 1285339 and 1343857 and 1404470 and 1166366 and 526872 and 508500 and 521664
- ClpC1/Total protein ([1]; conc. 0.0244141 µM): 0.2203 and 0.2456 and 0.2539 and 0.1932 and 0.1901 and 0.2179 and 0.789 and 0.7808 and 0.8172
- ClpC1 peak area ([1]; conc. 0.0244141 µM): 219991 and 270896 and 315004 and 406280 and 373553 and 423254 and 300752 and 349284 and 304692
- Total protein ([1]; conc. 0.0244141 µM): 1364922 and 1422232 and 1199890 and 1138728 and 1425365 and 1445718 and 514950 and 478415 and 517944
- ClpC1/Total protein ([1]; conc. 0.195312 µM): 0.1965 and 0.2082 and 0.2171 and 0.1985 and 0.1828 and 0.1625 and 0.6454 and 0.6178 and 0.5924
- ClpC1 peak area ([1]; conc. 0.195312 µM): 206233 and 279281 and 214864 and 343404 and 327767 and 310653 and 236077 and 257791 and 242759
- Total protein ([1]; conc. 0.195312 µM): 1201296 and 1238340 and 1118172 and 1039169 and 1528116 and 1322136 and 532053 and 530512 and 524388
- ClpC1/Total protein ([1]; conc. 1.5625 µM): 0.183 and 0.1832 and 0.1776 and 0.1788 and 0.1391 and 0.1421 and 0.6251 and 0.5883 and 0.5813
- ClpC1 peak area ([1]; conc. 1.5625 µM): 199828 and 195826 and 198204 and 278984 and 250174 and 259931 and 291643 and 223291 and 227414
- Total protein ([1]; conc. 1.5625 µM): 1593808 and 1218853 and 1280312 and 1117747 and 1407385 and 1394918 and 446304 and 425280 and 447143
- ClpC1/Total protein ([1]; conc. 100 µM): 0.09806 and 0.1539 and 0.02961 and 0.1406 and 0.1399 and 0.1212 and 0.4923 and 0.5713 and 0.5017
- ClpC1 peak area ([1]; conc. 100 µM): 152582 and 201776 and 136372 and 183701 and 277792 and 199452 and 19555.5 and 216020 and 1024.1
- Total protein ([1]; conc. 100 µM): 199420 and 1403452 and 34585.2 and 1085305 and 1442135 and 1125592 and 373184 and 486260 and 397564
- DC50 ([1]; mean of the measurements, read-out: DC50 Mean): 0.571 µM
- Microsomal Stability Mice [2]: 72 %Qh
- Supplementary Figure 2 dose-response value, replicating H37Rv cells ([3]; Conc. 0.0488281 µM): 104.399 and 96.7961 and 102.12
- Supplementary Figure 2 dose-response value, replicating H37Rv cells ([3]; Conc. 0.0976562 µM): 93.8283 and 89.4675 and 92.0871
- Supplementary Figure 2 dose-response value, replicating H37Rv cells ([3]; Conc. 0.195312 µM): 90.4271 and 81.4889 and 87.4903
- Supplementary Figure 2 dose-response value, replicating H37Rv cells ([3]; Conc. 0.390625 µM): 51.3931 and 36.6199 and 50.2013
- Supplementary Figure 2 dose-response value, replicating H37Rv cells ([3]; Conc. 0.78125 µM): -3.993 and -4.461 and -3.242
- Supplementary Figure 2 dose-response value, replicating H37Rv cells ([3]; Conc. 1.5625 µM): -4.627 and -5.471 and -5.181
- Supplementary Figure 2 dose-response value, replicating H37Rv cells ([3]; Conc. 3.125 µM): -6.152 and -6.465 and -5.866
- Supplementary Figure 2 dose-response value, replicating H37Rv cells ([3]; Conc. 6.25 µM): -7.417 and -8.76 and -6.686
- Supplementary Figure 2 dose-response value, replicating H37Rv cells ([3]; Conc. 25 µM): -8.655 and -4.856 and -8.241
- Supplementary Figure 2 dose-response value, replicating H37Rv cells ([3]; Conc. 50 µM): -5.541 and -9.178 and -8.98
- Supplementary Figure 2 dose-response value, replicating H37Rv cells ([3]; Conc. 100 µM): -7.259 and -9.127 and -7.68
- colony growth after replating (MBC assay) (Mtb H37Rv; Mtb H37Rv, result in words): did not form any colonies at concentrations at or above the MIC value
- MBC (Mtb H37Rv; read-out: MBC (from Set 3) Mtb H37Rv): 0.22 µg/mL and 0.1 µM
- MBC (Mtb H37Rv; individual example, read-out: MBC Mtb H37Rv): 0.1 µM and 0.2 µg/mL
- MIC (Msm 700084): 8.3 ± 5.1 µM (≈ 18 µg/mL)
- MIC (Mtb # 11291; Mycobacterium tuberculosis, mean, n = 2 well replicates, read-out: MIC Mtb # 11291): < 0.1 µM and < 0.2 µg/mL
- MIC (Mtb # 11291; Mycobacterium tuberculosis, read-out: MIC Mtb # 11291, single well replicates): < 0.1 µM and < 0.21 µg/mL
- MIC Mtb # 11291 (Mtb # 11291; single well replicates, listed as 8 (UdSBAI-0545)): <0.21 µg/mL
- MIC (Mtb # 11291; single well replicates, listed as 8 (UdSBAI-0545), read-out: MIC Mtb # 11291): <0.1 µM
- MIC (Staphylococcus aureus; Gram-Positive Bacteria, replicates 1-3, listed as 8 (UdSBI-0545)): >50 µM
- MIC (Staphylococcus aureus; Staphylococcus aureus, Gram positive, n = 3 well replicates): > 50 µM
- MIC (Staphylococcus aureus; Staphylococcus aureus, Gram-Positive Bacteria, replicates 1-3): > 109 µg/mL
- MIC (Klebsiella pneumoniae; [6]): >50 µM
- MIC (Klebsiella pneumoniae; Klebsiella pneumoniae, Gram negative, n = 3 well replicates): > 50 µM
- MIC (Klebsiella pneumoniae; Klebsiella pneumoniae, Gram-Negative Bacteria, replicates 1-3): > 109 µg/mL
- DC50 [4]: 8.3 µM
- MIC (Pseudomonas aeruginosa; [6]): >50 µM
- MIC (Pseudomonas aeruginosa; Pseudomonas aeruginosa, Gram negative, n = 3 well replicates): > 50 µM
- MIC (Pseudomonas aeruginosa; Pseudomonas aeruginosa, Gram-Negative Bacteria, replicates 1-3): > 109 µg/mL
- DC50 ([5]; Msm, Measurement 1-6, read-out: DC50, single measurements): 9 µM and 8.5 µM and 6 µM and 8.1 µM and 8.2 µM
- DC50 ([5]; cell-free degradation of ClpC1-NTD, 90 min, read-out: DC50 M.smegmatis ClpC1P1P2 Mean): 8 µM
- % Response ([5]; conc. 0.4 µM): 120.356% and 117.751% and 102.838% and 93.7015% and 104.532% and 103.754% and 118.347% and 117.353% and 124.609%
- ClpC1-NTD peak area ([5]; conc. 0.4 µM): 613438 and 713203 and 1462174 and 1713249 and 1751036 and 1183458 and 1105910 and 1047700 and 547599
- % Response ([5]; conc. 33.3 µM): 25.9293% and 29.5058% and 21.1338% and 16.911% and 37.0492% and 22.8094% and 15.8145% and 16.4069% and 19.2475%
- ClpC1-NTD peak area ([5]; conc. 33.3 µM): 245614 and 155160 and 213594 and 218458 and 306322 and 219308 and 255600 and 176271 and 124945
- % Response ([5]; conc. 100.0 µM): 31.4886% and 23.4001% and 28.8941% and 17.4698% and 14.335% and 19.5877% and 11.6161% and 9.907% and 14.2139%
- ClpC1-NTD peak area ([5]; conc. 100.0 µM): 99143.4 and 153042 and 198962 and 150433 and 187091 and 243688 and 174896 and 223232 and 140724
- CACO permeability PEAB (Caco-2 monolayers; apical to basolateral): <0.0000027 cm/sec
- Caco-2 permeability P (A-B) (Caco-2 monolayers; apical to basolateral): < 0.6 10-6 cm s-1
- CACO permeability PEBA (Caco-2 monolayers; basolateral to apical): <0.000001 cm/sec
- Caco-2 permeability P (B-A) (Caco-2 monolayers; basolateral to apical): < 0.3 10-6 cm s-1
- Caco-2 Int. Perm (Caco-2 monolayers; mean value of P(A−B) and P(B−A)): 0.4 10-6 cm s-1
- MIC (Mtb (moxR) FNDR-M1; M. tuberculosis FNDR-M1, single well replicates): 0.195 µM (≈ 0.423 µg/mL)
- MIC (Mtb (moxR) FNDR-M1; Mycobacterium tuberculosis, M. tuberculosis FNDR-M1, single well replicates): 0.195 µM (≈ 0.423 µg/mL)
- MIC (Mtb (moxR) FNDR-M1; Mycobacterium tuberculosis, Mtb (moxR) FNDR-M1, mean ± SD, n = 3 well replicates): 0.2 µM (≈ 0.434 µg/mL)
